Read-outs that look alike come from different tables or passages of the source.
Legend:
Type in all cases: biochemical
PI3Kβ = PI3Kβ (Homo sapiens (Human), UniProt P42338); assay: TR-FRET enzymatic assay of PI3K isoforms (PI3Kβ); details: for IC50: TR-FRET, 2×Km ATP, 2 μM PIP2, incubated for 30 minutes at 25° C., read-out: β IC50; for PI3Kγ/PI3Kβ ratio: ratio of IC50 values, selectivity for PI3Kβ over PI3Kγ
Description: (§1) The compounds of formula (I) were characterized for their enzymatic activity against the PI3K isoforms. Certain compounds of the present application, including certain compounds of formula (II) and (III) were also characterized for their enzymatic activity against PI3K isoforms. The activities were measured using a time-resolved fluorescence resonance energy transfer (TR-FRET) assay.

PI3Kδ = PI3Kδ (Homo sapiens (Human), UniProt O00329); assay: TR-FRET enzymatic assay of PI3K isoforms (PI3Kδ); details: 2×Km ATP, 2 μM PIP2, incubated for 30 minutes at 25° C., read-out: δ IC50
Description: as §1

PI3Kγ = PI3Kγ (Homo sapiens (Human), UniProt P48736); assay: TR-FRET enzymatic assay of PI3K isoforms (PI3Kγ); details: read-out: γ IC50
Description: as §1

[1] = TR-FRET, 2×Km ATP, 2 μM PIP2, PI3Kγ at 2 nM, incubated for 30 minutes at 25° C.

PI3Kγ, sequence (P48736 whole entry, canonical isoform): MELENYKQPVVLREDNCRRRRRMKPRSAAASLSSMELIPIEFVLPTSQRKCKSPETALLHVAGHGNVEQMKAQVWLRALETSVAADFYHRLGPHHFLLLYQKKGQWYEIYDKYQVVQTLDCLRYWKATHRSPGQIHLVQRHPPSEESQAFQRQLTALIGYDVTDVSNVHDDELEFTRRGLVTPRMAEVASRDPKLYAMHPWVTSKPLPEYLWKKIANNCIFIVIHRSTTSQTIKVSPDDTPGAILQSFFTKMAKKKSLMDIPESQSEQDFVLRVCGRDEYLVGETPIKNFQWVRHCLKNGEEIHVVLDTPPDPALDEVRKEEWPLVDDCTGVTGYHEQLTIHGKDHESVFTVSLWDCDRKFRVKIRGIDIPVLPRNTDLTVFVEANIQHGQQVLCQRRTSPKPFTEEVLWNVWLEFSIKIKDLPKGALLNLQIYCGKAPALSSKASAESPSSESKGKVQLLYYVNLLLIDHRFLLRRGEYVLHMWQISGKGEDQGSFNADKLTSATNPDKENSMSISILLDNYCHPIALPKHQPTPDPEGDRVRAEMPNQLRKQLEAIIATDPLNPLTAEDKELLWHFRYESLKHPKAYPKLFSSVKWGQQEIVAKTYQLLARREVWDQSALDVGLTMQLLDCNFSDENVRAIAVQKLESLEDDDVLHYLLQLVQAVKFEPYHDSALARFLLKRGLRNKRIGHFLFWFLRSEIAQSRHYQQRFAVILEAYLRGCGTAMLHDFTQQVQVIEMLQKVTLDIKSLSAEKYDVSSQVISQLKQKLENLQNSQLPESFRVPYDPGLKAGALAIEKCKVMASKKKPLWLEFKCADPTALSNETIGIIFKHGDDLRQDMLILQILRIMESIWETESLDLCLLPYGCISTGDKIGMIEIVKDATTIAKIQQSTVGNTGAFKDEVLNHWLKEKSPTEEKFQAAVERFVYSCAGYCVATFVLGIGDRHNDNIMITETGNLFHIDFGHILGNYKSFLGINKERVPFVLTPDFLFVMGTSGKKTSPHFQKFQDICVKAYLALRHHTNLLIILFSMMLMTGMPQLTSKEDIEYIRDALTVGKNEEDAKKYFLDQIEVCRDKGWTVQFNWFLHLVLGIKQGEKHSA
PI3Kγ, sequence (Q8WYR1 whole entry partner, canonical isoform): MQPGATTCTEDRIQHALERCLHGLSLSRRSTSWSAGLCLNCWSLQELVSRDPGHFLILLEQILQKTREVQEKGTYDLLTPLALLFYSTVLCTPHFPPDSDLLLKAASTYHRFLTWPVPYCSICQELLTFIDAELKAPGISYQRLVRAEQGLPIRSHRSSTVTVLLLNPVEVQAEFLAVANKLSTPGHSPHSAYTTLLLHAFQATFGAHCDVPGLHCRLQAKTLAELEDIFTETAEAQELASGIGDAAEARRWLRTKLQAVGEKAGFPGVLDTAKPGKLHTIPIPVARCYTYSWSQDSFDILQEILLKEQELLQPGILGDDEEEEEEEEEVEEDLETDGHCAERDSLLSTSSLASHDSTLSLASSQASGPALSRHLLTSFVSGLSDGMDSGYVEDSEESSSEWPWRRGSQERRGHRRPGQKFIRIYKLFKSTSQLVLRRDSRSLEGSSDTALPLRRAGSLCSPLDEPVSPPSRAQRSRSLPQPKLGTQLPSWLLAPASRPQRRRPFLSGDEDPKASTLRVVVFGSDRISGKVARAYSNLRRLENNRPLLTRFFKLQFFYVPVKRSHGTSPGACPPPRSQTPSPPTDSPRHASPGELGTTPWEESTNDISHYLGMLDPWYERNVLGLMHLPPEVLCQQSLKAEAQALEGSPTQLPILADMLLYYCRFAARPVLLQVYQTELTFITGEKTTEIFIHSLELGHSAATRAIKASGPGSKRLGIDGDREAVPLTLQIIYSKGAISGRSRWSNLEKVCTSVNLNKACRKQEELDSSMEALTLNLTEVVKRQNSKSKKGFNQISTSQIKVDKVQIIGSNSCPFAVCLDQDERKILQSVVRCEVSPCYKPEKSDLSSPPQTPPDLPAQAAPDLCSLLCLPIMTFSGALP
PI3Kδ, sequence (O00329 whole entry, canonical isoform): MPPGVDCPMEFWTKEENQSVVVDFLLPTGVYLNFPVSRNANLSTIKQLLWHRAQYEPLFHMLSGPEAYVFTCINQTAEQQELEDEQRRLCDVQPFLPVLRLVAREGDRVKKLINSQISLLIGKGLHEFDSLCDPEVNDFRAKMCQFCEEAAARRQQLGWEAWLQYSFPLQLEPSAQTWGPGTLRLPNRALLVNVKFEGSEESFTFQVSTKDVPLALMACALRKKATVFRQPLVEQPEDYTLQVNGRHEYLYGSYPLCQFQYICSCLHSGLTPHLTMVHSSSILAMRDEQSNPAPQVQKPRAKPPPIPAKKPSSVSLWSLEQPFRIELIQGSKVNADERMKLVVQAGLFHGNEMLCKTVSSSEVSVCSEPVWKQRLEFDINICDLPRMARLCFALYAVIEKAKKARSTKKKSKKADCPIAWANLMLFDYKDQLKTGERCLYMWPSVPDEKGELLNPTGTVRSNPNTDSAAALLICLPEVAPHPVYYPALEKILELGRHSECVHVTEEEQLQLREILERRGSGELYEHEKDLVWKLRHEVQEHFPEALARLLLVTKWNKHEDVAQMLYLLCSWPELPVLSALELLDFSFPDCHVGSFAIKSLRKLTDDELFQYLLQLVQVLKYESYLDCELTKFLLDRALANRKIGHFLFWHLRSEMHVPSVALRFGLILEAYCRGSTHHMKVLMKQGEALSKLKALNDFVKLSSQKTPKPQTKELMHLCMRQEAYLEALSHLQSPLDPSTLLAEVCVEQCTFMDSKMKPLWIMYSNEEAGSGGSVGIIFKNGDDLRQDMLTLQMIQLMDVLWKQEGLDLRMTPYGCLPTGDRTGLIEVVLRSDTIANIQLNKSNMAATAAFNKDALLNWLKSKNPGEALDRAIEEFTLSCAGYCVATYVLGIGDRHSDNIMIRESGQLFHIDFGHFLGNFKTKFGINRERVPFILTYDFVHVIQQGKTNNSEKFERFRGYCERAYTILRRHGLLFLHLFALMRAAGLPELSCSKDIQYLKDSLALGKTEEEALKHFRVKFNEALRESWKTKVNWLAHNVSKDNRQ
PI3Kδ, sequence (P27986 whole entry partner, canonical isoform): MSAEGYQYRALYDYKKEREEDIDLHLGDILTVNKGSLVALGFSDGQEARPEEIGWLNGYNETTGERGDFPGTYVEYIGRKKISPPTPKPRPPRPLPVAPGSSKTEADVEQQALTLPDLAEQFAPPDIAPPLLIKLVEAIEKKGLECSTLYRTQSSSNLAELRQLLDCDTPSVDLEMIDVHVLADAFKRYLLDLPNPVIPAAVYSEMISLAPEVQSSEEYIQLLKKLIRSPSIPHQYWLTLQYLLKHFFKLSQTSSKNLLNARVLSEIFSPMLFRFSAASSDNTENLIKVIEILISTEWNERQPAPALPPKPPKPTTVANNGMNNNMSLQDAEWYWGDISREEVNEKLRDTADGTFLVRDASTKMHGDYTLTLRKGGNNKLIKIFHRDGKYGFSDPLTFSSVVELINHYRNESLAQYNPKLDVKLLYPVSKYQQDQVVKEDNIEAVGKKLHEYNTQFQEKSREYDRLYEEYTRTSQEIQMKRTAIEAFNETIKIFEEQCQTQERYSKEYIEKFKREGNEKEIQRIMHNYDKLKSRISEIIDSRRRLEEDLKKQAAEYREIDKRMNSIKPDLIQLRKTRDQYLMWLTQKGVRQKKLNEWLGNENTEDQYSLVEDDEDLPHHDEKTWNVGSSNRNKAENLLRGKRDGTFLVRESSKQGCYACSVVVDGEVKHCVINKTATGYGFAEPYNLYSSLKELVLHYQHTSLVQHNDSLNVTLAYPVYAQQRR
PI3Kβ, sequence (P42338 whole entry, canonical isoform): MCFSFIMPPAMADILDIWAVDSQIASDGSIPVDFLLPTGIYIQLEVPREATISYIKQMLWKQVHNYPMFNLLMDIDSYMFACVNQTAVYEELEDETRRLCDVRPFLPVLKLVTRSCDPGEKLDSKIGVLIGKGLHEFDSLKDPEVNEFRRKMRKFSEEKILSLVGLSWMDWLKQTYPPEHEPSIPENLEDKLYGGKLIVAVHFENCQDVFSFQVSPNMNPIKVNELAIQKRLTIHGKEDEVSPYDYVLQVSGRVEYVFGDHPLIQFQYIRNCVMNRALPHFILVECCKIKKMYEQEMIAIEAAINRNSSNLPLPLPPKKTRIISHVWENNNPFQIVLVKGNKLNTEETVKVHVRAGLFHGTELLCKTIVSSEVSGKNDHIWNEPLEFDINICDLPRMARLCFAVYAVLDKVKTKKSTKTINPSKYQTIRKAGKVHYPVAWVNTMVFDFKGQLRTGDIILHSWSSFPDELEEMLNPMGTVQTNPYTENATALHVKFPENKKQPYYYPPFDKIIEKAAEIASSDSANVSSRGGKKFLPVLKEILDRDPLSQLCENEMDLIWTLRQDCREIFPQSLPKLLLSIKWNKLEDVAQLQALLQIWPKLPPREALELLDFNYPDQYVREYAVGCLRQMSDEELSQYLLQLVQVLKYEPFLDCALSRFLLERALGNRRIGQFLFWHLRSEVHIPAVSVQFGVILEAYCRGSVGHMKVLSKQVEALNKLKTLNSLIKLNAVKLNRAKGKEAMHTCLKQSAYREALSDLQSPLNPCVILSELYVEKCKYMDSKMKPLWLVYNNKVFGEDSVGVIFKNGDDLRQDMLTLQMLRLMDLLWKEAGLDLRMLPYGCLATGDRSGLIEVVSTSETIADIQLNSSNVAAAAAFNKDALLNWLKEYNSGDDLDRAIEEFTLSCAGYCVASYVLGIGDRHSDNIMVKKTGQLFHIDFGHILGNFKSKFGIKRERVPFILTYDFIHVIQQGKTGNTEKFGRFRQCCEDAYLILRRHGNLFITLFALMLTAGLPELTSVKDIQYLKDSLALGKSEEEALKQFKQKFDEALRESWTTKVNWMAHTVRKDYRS
PI3Kβ, sequence (P27986 whole entry partner, canonical isoform): as the sequence (P27986 whole entry partner, canonical isoform) above

IC50 (PI3Kβ)	IC50 (PI3Kδ)	IC50 (PI3Kγ; [1])	IC50 (PI3Kγ)	PI3Kγ/PI3Kβ ratio (PI3Kβ)	PI3Kγ/PI3Kβ ratio (PI3Kβ; listed as (S)-2,4-diamino-6-(1-(5-chloro-4-oxo-3-phenyl-3,4-dihydroquinazolin-2-yl)ethyl))	Structure (SMILES)
1300 nM	24 nM	–	–	–	–	CCNC(=O)Nc1ccc(Cl)c(-n2c([C@H](C)Nc3ncnc(N)c3C#N)nc3cccc(Cl)c3c2=O)c1 (atropisomer, axis not shown) [Compound 58, (S)-1-(3-(2-(1-((6-amino-5-cyanopyrimidin-4-yl)amino)ethyl)-5-chloro-4-oxoquinazolin-3(4H)-yl)-4-chlorophenyl)-3-ethylurea]
610 nM	56 nM	2300 nM	–	–	–	CCNC(=O)Nc1ccc(Cl)c(-n2c([C@H](C)Nc3ncnc(N)c3C#N)nc3cccc(Cl)c3c2=O)c1 (atropisomer, axis not shown) [Compound 59, (S)-1-(3-(2-(1-((6-amino-5-cyanopyrimidin-4-yl)amino)ethyl)-5-chloro-4-oxoquinazolin-3(4H)-yl)-4-chlorophenyl)-3-ethylurea]
210 nM	4 nM	210 nM	–	–	–	CCNC(=O)Nc1ccc(C)c(-n2c([C@H](C)Nc3ncnc(N)c3C#N)nc3cccc(Cl)c3c2=O)c1 (atropisomer, axis not shown) [Compound 60, (S)-1-(3-(2-(1-((6-amino-5-cyanopyrimidin-4-yl)amino)ethyl)-5-chloro-4-oxoquinazolin-3(4H)-yl)-4-methylphenyl)-3-ethylurea]
1130 nM	8 nM	2500 nM	–	–	–	CCNC(=O)Nc1ccc(C)c(-n2c([C@H](C)Nc3ncnc(N)c3C#N)nc3cccc(Cl)c3c2=O)c1 (atropisomer, axis not shown) [Compound 61, (S)-1-(3-(2-(1-((6-amino-5-cyanopyrimidin-4-yl)amino)ethyl)-5-chloro-4-oxoquinazolin-3(4H)-yl)-4-methylphenyl)-3-ethylurea]
526 nM	2 nM	81 nM	–	–	–	Cc1c(C(N)=O)cccc1-n1c([C@H](C)Nc2nc(N)nc(N)c2C#N)nc2cccc(Cl)c2c1=O (single isomer, unassigned) [Compound 5]
32 nM	4 nM	620 nM	–	–	–	Cc1c(C(N)=O)cccc1-n1c([C@H](C)Nc2nc(N)nc(N)c2C#N)nc2cccc(Cl)c2c1=O (single isomer, unassigned) [Compound 6]
5500 nM	78 nM	> 10000 nM	–	–	–	CCNC(=O)Nc1cccc(-n2c([C@H](C)Nc3ncnc(N)c3C#N)nc3cccc(Cl)c3c2=O)c1Cl (single isomer, unassigned) [Compound 94]
59 nM	5 nM	1000 nM	–	–	–	CCNC(=O)Nc1cccc(-n2c([C@H](C)Nc3ncnc(N)c3C#N)nc3cccc(Cl)c3c2=O)c1Cl (single isomer, unassigned) [Compound 95]
14 nM	0.7 nM	1300 nM	–	–	–	C[C@H](Nc1nc(N)nc(N)c1Cl)c1nc2cccc(Cl)c2c(=O)n1-c1cccc(C(N)=O)c1 [Compound 1, (S)-3-(5-chloro-2-(1-((2,6-diamino-5-chloropyrimidin-4-yl)amino)ethyl)-4-oxoquinazolin-3(4H)-yl)benzamide]
7 nM	–	510 nM	–	–	–	Cc1nc(N)nc(N[C@H](c2nc3c(Cl)ccc(Cl)c3c(=O)n2-c2cccc(C(N)=O)c2)C2CC2)c1C#N [Compound 13, (S)-3-(2-(((2-amino-5-cyano-6-methylpyrimidin-4-yl)amino)(cyclopropyl)methyl)-5,8-dichloro-4-oxoquinazolin-3(4H)-yl)benzamide]
11 nM	–	1400 nM	–	–	–	CCC[C@H](Nc1nc(N)nc(N)c1C#N)c1nc2c(Cl)ccc(Cl)c2c(=O)n1-c1cccc(C(N)=O)c1 [Compound 20, (S)-3-(5,8-dichloro-2-(1-((2,6-diamino-5-cyanopyrimidin-4-yl)amino)butyl)-4-oxoquinazolin-3(4H)-yl)benzamide]
5 nM	2 nM	–	–	–	–	N#Cc1c(N)nc(N)nc1N[C@H](c1nc2c(Cl)cc(F)cc2c(=O)n1-c1cccc(C(N)=O)c1)C1CC1 [Compound 27, (S)-3-(8-chloro-2-(cyclopropyl((2,6-diamino-5-cyanopyrimidin-4-yl)amino)methyl)-6-fluoro-4-oxoquinazolin-3(4H)-yl)benzamide]
170 nM	–	> 10000 nM	–	–	–	CCNC(=O)Nc1cccc(-n2c([C@@H](Nc3ncnc(N)c3C#N)[C@@H](C)CC)nc3cccc(Cl)c3c2=O)c1 [Compound 42, 1-(3-(2-((1S,2S)-1-((6-amino-5-cyanopyrimidin-4-yl)amino)-2-methylbutyl)-5-chloro-4-oxoquinazolin-3(4H)-yl)phenyl)-3-ethylurea]
320 nM	–	> 10000 nM	–	–	–	CCNC(=O)Nc1cccc(-n2c([C@@H](C)Nc3ncnc(N)c3C#N)nc3cccc(Cl)c3c2=O)c1 [Compound 44, (R)-1-(3-(2-(1-((6-amino-5-cyanopyrimidin-4-yl)amino)ethyl)-5-chloro-4-oxoquinazolin-3(4H)-yl)phenyl)-3-ethylurea]
67 nM	–	–	–	–	–	CCNC(=O)Nc1cccc(-n2c([C@H](C)Nc3ncnc(N)c3C#N)nc3cccc(C(F)(F)F)c3c2=O)c1 [Compound 51, (S)-1-(3-(2-(1-((6-amino-5-cyanopyrimidin-4-yl)amino)ethyl)-4-oxo-5-(trifluoromethyl)quinazolin-3(4H)-yl)phenyl)-3-ethylurea]
29 nM	29 nM	–	–	–	–	CCNC(=O)Nc1cccc(-n2c([C@H](C)Nc3ncnc4[nH]cnc34)nc3c(F)ccc(Cl)c3c2=O)c1 [Compound 63, (S)-1-(3-(2-(1-((9H-purin-6-yl)amino)ethyl)-5-chloro-8-fluoro-4-oxoquinazolin-3(4H)-yl)phenyl)-3-ethylurea]
29 nM	–	2000 nM	–	–	–	CCNC(=O)Nc1cccc(-n2c([C@H](C)Nc3ncnn4ccnc34)nc3cccc(Cl)c3c2=O)c1 [Compound 71, (S)-1-(3-(5-chloro-2-(1-(imidazo[2,1-f][1,2,4]triazin-4-ylamino)ethyl)-4-oxoquinazolin-3(4H)-yl)phenyl)-3-ethylurea]
11 nM	3 nM	–	–	–	–	C[C@H](Nc1ncnc(N)c1C#N)c1nc2cccc(Cl)c2c(=O)n1-c1cccc(NC(=O)Nc2cc(C(C)(C)C)on2)c1 [Compound 74, (S)-1-(3-(2-(1-((6-amino-5-cyanopyrimidin-4-yl)amino)ethyl)-5 chloro-4-oxoquinazolin-3(4H)-yl)phenyl)-3-(5-(tert-butyl)isoxazol-3-yl)urea]
5 nM	–	3400 nM	–	–	–	CCNC(=O)Nc1cccc(-n2c([C@H](C)Nc3ncnc(N)c3C#N)nc3cccc(Cl)c3c2=O)c1 [Compound 90, (S)-1-(3-(2-(1-((6-amino-5-cyanopyrimidin-4-yl)amino)ethyl)-5-chloro-4-oxoquinazolin-3(4H)-yl)phenyl)-3-ethylurea]
2 nM	7 nM	–	–	–	–	C[C@H](Nc1ncnc(N)c1C#N)c1nc2cccc(Cl)c2c(=O)n1-c1cccc(NC(=O)Nc2c(Cl)cccc2Cl)c1 [Compound 103, (S)-1-(3-(2-(1-((6-amino-5-cyanopyrimidin-4-yl)amino)ethyl)-5-chloro-4-oxoquinazolin-3(4H)-yl)phenyl)-3-(2,6-dichlorophenyl)urea]
3 nM	–	800 nM	–	–	–	C[C@H](Nc1ncnc(N)c1C#N)c1nc2cccc(Cl)c2c(=O)n1-c1cccc(NC(=O)Nc2ccc(F)cc2F)c1 [Compound 105, (S)-1-(3-(2-(1-((6-amino-5-cyanopyrimidin-4-yl)amino)ethyl)-5-chloro-4-oxoquinazolin-3(4H)-yl)phenyl)-3-(2,4-difluorophenyl)urea]
24 nM	–	–	> 10000 nM	–	–	N#Cc1c(N)ncnc1N[C@@H](COCc1ccccc1)c1nc2cccc(Cl)c2c(=O)n1-c1cccc(NC(=O)NCCCO)c1 [Compound 130, (R)-1-(3-(2-(1-((6-amino-5-cyanopyrimidin-4-yl)amino)-2-(benzyloxy)ethyl)-5-chloro-4-oxoquinazolin-3(4H)-yl)phenyl)-3-(3-hydroxypropyl)urea]
50 nM	–	10000 nM	–	–	–	CCNC(=O)Nc1cccc(-n2c([C@H](COCc3ccccc3)Nc3ncnc4[nH]cnc34)nc3cccc(Cl)c3c2=O)c1 [Compound 133, (R)-1-(3-(2-(1-((9H-purin-6-yl)amino)-2-(benzyloxy)ethyl)-5-chloro-4-oxoquinazolin-3(4H)-yl)phenyl)-3-ethylurea]
30 nM	8 nM	–	–	–	–	C[C@H](Nc1ncnc2[nH]cnc12)c1nc2cccc(Cl)c2c(=O)n1-c1cccc(NC(=O)Nc2ccccc2S(C)(=O)=O)c1 [Compound 145, (S)-1-(3-(2-(1-((9H-purin-6-yl)amino)ethyl)-5-chloro-4-oxoquinazolin-3(4H)-yl)phenyl)-3-(2-(methylsulfonyl)phenyl)urea]
60 nM	–	3500 nM	–	–	–	COCCNC(=O)Nc1cccc(-n2c(C(C)Oc3ncnc4scnc34)nc3cccc(Cl)c3c2=O)c1 (stereo not shown) [Compound 149, 1-(3-(5-chloro-4-oxo-2-(1-(thiazolo[5,4-d]pyrimidin-7-yloxy)ethyl)quinazolin-3(4H)-yl)phenyl)-3-(2-methoxyethyl)urea]
–	–	–	–	0.6	less than 1	C[C@H](Nc1nc(N)nc(N)c1C#N)c1nc2cccc(Cl)c2c(=O)n1-c1ccccc1 [Compound X, (S)-2,4-diamino-6-((1-(5-chloro-4-oxo-3-phenyl-3,4-dihydroquinazolin-2-yl)ethyl)amino)pyrimidine-5-carbonitrile, reference compound]

Structure (SMILES)	IC50 (PI3Kβ)	IC50 (PI3Kδ)	IC50 (PI3Kγ; [1])	IC50 (PI3Kγ)	PI3Kγ/PI3Kβ ratio (PI3Kβ)	PI3Kγ/PI3Kβ ratio (PI3Kβ; listed as (S)-2,4-diamino-6-(1-(5-chloro-4-oxo-3-phenyl-3,4-dihydroquinazolin-2-yl)ethyl))
C[C@H](Nc1nc(N)nc(N)c1C#N)c1nc2c(Cl)cc(F)cc2c(=O)n1-c1cccc(C(N)=O)c1 [Compound 29]	8 nM	–	440 nM	–	–	–
